Laboratory results reported in US10669272B2, “Substituted naphthyridinone compounds useful as T cell activators” (BRISTOL-MYERS SQUIBB COMPANY, priority 2018, dated 2020).
Like-named read-outs stand apart in the source and are kept apart here.

How the values were obtained:
Human venous whole blood = experiment: Human whole blood IFN-γ assay; assay type: cell-based; conditions: human whole blood, read-out: INFg Whole Blood Normalized Agonist EC50;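 note: blood from healthy donors exposed to compound for 1 h before stimulation with anti-CD3 and anti-CD28 at 1 µg/mL each, IFN-γ quantified in supernatant by AlphaLISA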
human DGKα = molecular target: T1, human DGKα (Homo sapiens, UniProt P23743); experiment: DGKα LIPGLO assay (extruded liposome substrate), in vitro DGK inhibition; assay type: biochemical; conditions: read-out: DGKa LIPGLO IC50
T1 construct: TVMV protease cleavage site (C); Hexa-His (C); made in house; host or cells: Sf9 insect cells (baculovirus, Bac-to-Bac)
T1 sequence (P23743 with tags, fused parts or gaps): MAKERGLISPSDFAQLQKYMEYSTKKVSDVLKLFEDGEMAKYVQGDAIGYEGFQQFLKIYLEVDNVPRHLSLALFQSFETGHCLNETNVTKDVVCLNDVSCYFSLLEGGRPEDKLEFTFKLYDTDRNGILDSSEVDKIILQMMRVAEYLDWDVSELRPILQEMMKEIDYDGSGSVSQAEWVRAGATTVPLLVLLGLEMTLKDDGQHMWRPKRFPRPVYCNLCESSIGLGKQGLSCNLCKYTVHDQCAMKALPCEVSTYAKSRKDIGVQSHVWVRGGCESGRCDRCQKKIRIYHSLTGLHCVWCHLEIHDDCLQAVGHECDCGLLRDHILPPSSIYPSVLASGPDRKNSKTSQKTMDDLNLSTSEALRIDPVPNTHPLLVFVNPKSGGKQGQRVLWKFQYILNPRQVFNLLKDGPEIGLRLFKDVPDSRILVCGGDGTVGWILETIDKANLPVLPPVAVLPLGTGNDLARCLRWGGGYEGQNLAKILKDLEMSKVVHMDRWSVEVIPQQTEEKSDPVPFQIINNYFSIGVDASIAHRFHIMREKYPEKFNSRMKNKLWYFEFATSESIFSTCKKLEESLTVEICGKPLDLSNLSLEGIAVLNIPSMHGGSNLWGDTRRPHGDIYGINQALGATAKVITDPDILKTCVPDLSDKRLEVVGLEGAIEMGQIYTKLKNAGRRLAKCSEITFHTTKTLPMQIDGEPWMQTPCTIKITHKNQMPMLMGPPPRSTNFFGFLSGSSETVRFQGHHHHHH

human DGKζ = molecular target: T2, human DGKζ (Homo sapiens, UniProt Q13574); experiment: DGKζ LIPGLO assay (extruded liposome substrate), in vitro DGK inhibition; assay type: biochemical; conditions: read-out: DGKz LIPGLO IC50
T2 construct: TVMV protease cleavage site (C); Hexa-His (C); made in house; host or cells: Sf9 insect cells (baculovirus, Bac-to-Bac)
T2 sequence (Q13574 with tags, fused parts or gaps isoform Q13574-4): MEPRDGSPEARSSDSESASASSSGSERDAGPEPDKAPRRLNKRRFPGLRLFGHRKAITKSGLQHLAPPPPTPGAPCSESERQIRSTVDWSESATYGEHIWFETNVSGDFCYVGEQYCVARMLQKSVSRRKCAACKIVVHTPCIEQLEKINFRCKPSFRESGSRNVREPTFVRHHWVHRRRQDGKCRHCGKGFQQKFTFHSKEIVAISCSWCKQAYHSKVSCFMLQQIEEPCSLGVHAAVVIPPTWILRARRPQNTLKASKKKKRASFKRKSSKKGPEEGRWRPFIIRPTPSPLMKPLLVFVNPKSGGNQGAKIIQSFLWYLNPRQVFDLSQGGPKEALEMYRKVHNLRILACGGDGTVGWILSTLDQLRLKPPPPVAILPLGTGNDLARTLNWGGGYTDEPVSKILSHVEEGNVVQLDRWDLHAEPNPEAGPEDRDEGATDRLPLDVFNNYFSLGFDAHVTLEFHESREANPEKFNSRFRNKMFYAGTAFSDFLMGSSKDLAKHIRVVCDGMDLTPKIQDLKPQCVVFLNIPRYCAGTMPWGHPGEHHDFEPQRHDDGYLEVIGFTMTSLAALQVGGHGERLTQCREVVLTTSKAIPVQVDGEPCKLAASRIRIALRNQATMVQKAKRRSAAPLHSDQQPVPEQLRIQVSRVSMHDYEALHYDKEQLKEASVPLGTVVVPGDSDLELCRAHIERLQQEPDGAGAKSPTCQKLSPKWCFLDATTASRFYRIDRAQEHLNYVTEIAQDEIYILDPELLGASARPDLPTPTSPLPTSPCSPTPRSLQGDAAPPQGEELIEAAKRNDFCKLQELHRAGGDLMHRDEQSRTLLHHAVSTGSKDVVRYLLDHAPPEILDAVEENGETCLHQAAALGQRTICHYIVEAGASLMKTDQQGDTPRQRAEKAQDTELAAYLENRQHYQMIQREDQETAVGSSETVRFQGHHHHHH

[1] = Homo sapiens, 24 h, normalized to 3 μM reference compound with anti-CD3 plus anti-CD28 as 100% activation
[2] = normalized to 3 μM reference compound with anti-CD3 plus anti-CD28 as 100% activation
[3] = anti-CD3 plus anti-CD28, 24 hours, 3 μM reference compound = 100% activation
[4] = Homo sapiens, 24 h, anti-CD3 plus anti-CD28, 24 hours, 3 μM reference compound = 100% activation

| IC50 (human DGKα; liposome (LIPGLO) assay) | IC50 (human DGKζ; liposome (LIPGLO) assay) | IC50 (human DGKα; DGKα liposome (LIPGLO) assay) | IC50 (human DGKζ; DGKζ liposome (LIPGLO) assay) | SMILES | EC50 (Human venous whole blood; [1]) | EC50 (Human venous whole blood; [2]) | EC50 (Human venous whole blood; [3]) | EC50 (Human venous whole blood; [4]) |
| --- | --- | --- | --- | --- | --- | --- | --- | --- |
| 0.1 µM | 0.15 µM | – | – | COCC(F)(F)C(c1ccc(F)cc1)N1C[C@H](C)N(c2cc(=O)n(C)c3ccc(C#N)nc23)C[C@H]1C (single isomer, unassigned) [Example 1312] | 0.33 µM | – | – | – |
| 0.48 µM | 0.48 µM | – | – | CC[C@H]1CN(C(C)c2ccc(C(F)(F)F)cc2F)[C@H](CC)CN1c1cc(=O)n(C)c2ccc(C#N)nc12 (single isomer, unassigned) [Example 1365] | – | 2.2 µM | – | – |
| 0.73 µM | 0.47 µM | – | – | CC[C@@H]1CN(c2cc(=O)n(C)c3ccc(C#N)nc23)[C@@H](C)CN1C(c1cccc(F)c1)c1ccc(F)cn1 (single isomer, unassigned) [Example 1109] | 0.92 µM | – | – | – |
| 4 µM | 15 µM | – | – | C[C@H]1CN(Cc2ccc3c(c2)OC(F)(F)O3)[C@H](CO)CN1c1cc(=O)n(C)c2ccc(C#N)nc12 [Example 1390] | 14 µM | – | – | – |
| 1.7 µM | 0.4 µM | – | – | C[C@@H]1CN(c2cc(=O)n(C)c3ccc(C#N)nc23)[C@@H](C)CN1C(c1ccc(F)cc1)c1cnn2ccccc12 (single isomer, unassigned) [Example 698] | 1 µM | – | – | – |
| 2.6 µM | 2.7 µM | – | – | C[C@@H]1CN(c2cc(=O)n(C)c3ccc(C#N)nc23)[C@@H](C)CN1C(c1ccc(F)cc1)c1nc(C2CN(C)C2)no1 (single isomer, unassigned) [Example 1298] | 13 µM | – | – | – |
| – | – | 1.3 µM | 27 µM | C[C@@H]1CN(c2c(C#N)c(=O)n(C)c3ccc(C#N)nc23)[C@@H](C)CN1C(c1ccc(F)cc1)c1ccon1 (single isomer, unassigned) [Example 851] | – | – | 20 µM | – |
| – | – | 2.9 µM | 1.8 µM | C[C@@H]1CN(c2c(C#N)c(=O)n(C)c3ccc(C#N)nc23)CCN1Cc1ccc(F)c(F)c1 [Example 987] | – | – | – | 7.3 µM |
| 0.66 µM | 0.03 µM | – | – | COc1cc(F)c(C(C)N2C[C@H](C)N(c3cc(=O)n(C)c4ccc(C#N)nc34)C[C@H]2C)cc1F (stereo partly drawn) [Example 1244] | 0.12 µM | – | – | – |
| 1.6 µM | 0.13 µM | – | – | CC[C@H]1CN(C(c2ccc(F)cc2)c2cccc(C(F)(F)F)n2)[C@H](C)CN1c1cc(=O)n(C)c2ccc(C#N)nc12 (single isomer, unassigned) [Example 1133] | 0.57 µM | – | – | – |
| 0.3 µM | 0.16 µM | – | – | CC(c1cc(OC(F)F)ccc1F)N1C[C@H](C)N(c2cc(=O)n(C)c3ccc(C#N)nc23)C[C@H]1C (single isomer, unassigned) [Example 1229] | 0.51 µM | – | – | – |
| 2.1 µM | 0.96 µM | – | – | C[C@@H]1CN(c2cc(=O)n(C)c3ccc(C#N)nc23)[C@@H](C)CN1Cc1coc(-c2cccs2)n1 [Example 1434] | 21 µM | – | – | – |
| 0.011 µM | 0.027 µM | – | – | CC[C@H]1CN(C(c2ccc(F)cc2)c2cc(C3CC3)on2)[C@H](CC)CN1c1cc(=O)n(C)c2ccc(C#N)nc12 (single isomer, unassigned) [Example 1075] | – | 0.037 µM | – | – |
| 1.7 µM | 2.7 µM | – | – | CC(c1ccc(OC(F)(F)F)c(F)c1)N1C[C@H](C)N(c2cc(=O)n(C)c3ccc(C#N)nc23)C[C@H]1C (single isomer, unassigned) [Example 1270] | – | 8 µM | – | – |
| – | – | 22 µM | 8.6 µM | Cc1ccc(C(c2ccc(F)cc2)N2C[C@H](C)N(c3c(C#N)c(=O)n(C)c4ccc(C#N)nc34)C[C@H]2C)cc1 (stereo partly drawn) [Example 817] | – | – | 1.1 µM | – |
| 0.1 µM | 0.75 µM | – | – | CC[C@H]1CN(C(c2ccc(F)cc2)c2ccon2)[C@H](CC)CN1c1cc(=O)n(C)c2ccc(C#N)nc12 (single isomer, unassigned) [Example 1072] | – | 0.77 µM | – | – |
| 6.5 µM | 1.3 µM | – | – | COC[C@@H]1CN(c2cc(=O)n(C)c3ccc(C#N)nc23)[C@@H](C)CN1C(c1ccc(F)cc1)c1ccc(C#N)cc1 (single isomer, unassigned) [Example 1158] | – | 0.35 µM | – | – |
| 0.0044 µM | 0.016 µM | – | – | CC[C@@H]1CN(c2cc(=O)n(C)c3ccc(C#N)nc23)[C@@H](C)CN1C(C)c1ccc(OC(F)F)cc1 (stereo partly drawn) [Example 1343] | 0.051 µM | – | – | – |
| – | – | 0.41 µM | 1.3 µM | C[C@@H]1CN(c2c(C#N)c(=O)n(C)c3ccc(C#N)nc23)[C@@H](C)CN1C(c1ccc(F)cc1)c1nc(C2CC2)no1 (single isomer, unassigned) [Example 860] | – | – | – | 0.72 µM |
| – | – | 0.44 µM | 2.4 µM | C[C@@H]1CN(c2c(C#N)c(=O)n(C)c3ccc(C#N)nc23)[C@@H](C)CN1C(c1ccc(F)cc1)c1cc(C2CC2)on1 (single isomer, unassigned) [Example 868] | – | – | – | 2.2 µM |

| IC50 (human DGKα; liposome (LIPGLO) assay) | IC50 (human DGKζ; liposome (LIPGLO) assay) | IC50 (human DGKα; DGKα liposome (LIPGLO) assay) | IC50 (human DGKζ; DGKζ liposome (LIPGLO) assay) | SMILES | EC50 (Human venous whole blood; [1]) | EC50 (Human venous whole blood; [2]) | EC50 (Human venous whole blood; [3]) | EC50 (Human venous whole blood; [4]) |
| --- | --- | --- | --- | --- | --- | --- | --- | --- |
| 0.014 µM | 0.044 µM | – | – | CC[C@H]1CN(C(c2ccc(F)cc2)c2cscn2)[C@H](CC)CN1c1cc(=O)n(C)c2ccc(C#N)nc12 (single isomer, unassigned) [Example 1071] | – | 0.19 µM | – | – |
| 48 µM | 7.8 µM | – | – | Cc1ccc(C(c2cccc(F)c2)N2C[C@H](C)N(c3cc(=O)n(C)c4ccc(C#N)nc34)C[C@H]2C)cn1 (single isomer, unassigned) [Example 395] | – | 6.3 µM | – | – |
| – | – | > 250 µM | 130 µM | C[C@@H]1CN(c2c(C#N)c(=O)n(C)c3ccc(C#N)nc23)[C@@H](C)CN1C(c1ccc(F)cc1)c1cncn1C (stereo partly drawn) [Example 849] | – | – | 20 µM | – |
| 3.6 µM | 4.5 µM | – | – | C[C@@H]1CN(c2c(F)c(=O)n(C)c3ccc(C#N)nc23)[C@@H](C)CN1C(c1ccc(F)cc1)c1c(F)cccc1F (single isomer, unassigned) [Example 329] | – | 13 µM | – | – |
| 4.2 µM | 1.7 µM | – | – | CCC(c1ccc(OC(C)C)cc1)N1C[C@H](C)N(c2cc(=O)n(C)c3ccc(C#N)nc23)C[C@H]1CC (single isomer, unassigned) [Example 1448] | – | 1.6 µM | – | – |
| – | – | 4.1 µM | 1.5 µM | Cc1cc(C(c2ccc(F)cc2)N2C[C@H](C)N(c3cc(=O)n(C)c4ccc(C#N)nc34)C[C@H]2C)no1 (single isomer, unassigned) [Example 733] | – | – | 3.5 µM | – |
| 0.19 µM | 1.8 µM | – | – | C[C@@H]1CN(c2cc(=O)n(C)c3ccc(C#N)nc23)[C@@H](C)CN1C(c1ccc(OC(F)(F)F)cc1)c1ccc(F)cn1 (single isomer, unassigned) [Example 466] | – | 5.5 µM | – | – |
| – | – | 2.8 µM | 51 µM | Cc1cccc(C(C)N2CCN(c3c(C#N)c(=O)n(C)c4ccc(C#N)nc34)C[C@H]2C)n1 (stereo partly drawn) [Example 967] | – | – | 18 µM | – |
| 1.8 µM | 0.018 µM | – | – | COCc1cc(C(C)N2C[C@H](C)N(c3cc(=O)n(C)c4ccc(C#N)nc34)C[C@H]2C)ccc1F (single isomer, unassigned) [Example 1316] | 4.5 µM | – | – | – |
| 6.8 µM | 21 µM | – | – | C[C@@H]1CN(c2cc(=O)n(C)c3ccc(C#N)nc23)[C@@H](C)CN1Cc1ccc(OC(F)(F)F)c(Cl)c1 [Example 611] | 3.7 µM | – | – | – |
| – | – | 4.9 µM | 13 µM | C[C@@H]1CN(c2c(C#N)c(=O)n(C)c3ccc(C#N)nc23)CCN1C(c1ccc(F)cc1)c1ccc(C#N)cc1 (single isomer, unassigned) [Example 920] | – | – | 1.9 µM | – |
| 0.3 µM | 0.1 µM | – | – | COC[C@@H]1CN(c2cc(=O)n(C)c3ccc(C#N)nc23)[C@@H](C)CN1C(c1ccc(F)cc1)c1ccc(C(F)(F)F)cn1 (stereo partly drawn) [Example 1402] | – | 0.26 µM | – | – |
| – | – | 81 µM | 74 µM | C[C@@H]1CN(c2c(C#N)c(=O)n(C)c3ccc(C#N)nc23)CCN1C(c1ccc(F)cc1)c1cncn1C (single isomer, unassigned) [Example 1018] | – | – | – | 20 µM |
| 26 µM | 65 µM | – | – | CC(c1ccc(OC(F)(F)F)cc1)N1C[C@H](C)N(c2cc(=O)n(C)c3ccc(C#N)nc23)C[C@H]1CN1CCN(C)CC1 (stereo partly drawn) [Example 1417] | 11 µM | – | – | – |
| 0.24 µM | 0.24 µM | – | – | C[C@@H]1CN(c2cc(=O)n(C)c3ccc(C#N)nc23)[C@@H](C)CN1C(c1ccc(F)cc1)c1cccc(C(F)F)n1 (single isomer, unassigned) [Example 696] | – | 0.42 µM | – | – |
| 0.075 µM | 0.075 µM | – | – | CC(c1ccc(C2CC2)cc1)N1C[C@H](C)N(c2cc(=O)n(C)c3ccc(C#N)nc23)C[C@H]1C (single isomer, unassigned) [Example 1214] | – | 0.22 µM | – | – |
| 0.57 µM | 0.3 µM | – | – | CC[C@@H]1CN(c2cc(=O)n(C)c3ccc(C#N)nc23)[C@@H](C)CN1C(c1ccc(C)cc1)c1ccc(C)cc1 [Example 1098] | 0.15 µM | – | – | – |
| – | – | 0.12 µM | 1.6 µM | C[C@@H]1CN(c2cc(=O)n(C)c3ccc(C#N)nc23)[C@@H](C)CN1C(c1ccc(F)cc1)c1nc(C(F)F)no1 (stereo partly drawn) [Example 743] | – | – | – | 0.42 µM |
| 0.17 µM | 0.88 µM | – | – | C[C@H]1CN(C(c2ccc(F)cc2)c2ccc(C(F)(F)F)cn2)[C@H](CO)CN1c1cc(=O)n(C)c2ccc(C#N)nc12 (single isomer, unassigned) [Example 1389] | – | 0.92 µM | – | – |
